Test results taken from patent US20250197387A1, “BCL-XL DEGRADERS AND USES THEREOF” (Kymera Therapeutics, Inc., priority 2021, published 2025).
Like-named read-outs stand apart in the source and are kept apart here.

Columns and labels:
Format in all cases: cell-based
BCL-XL [1] = target: T1, BCL-XL (Homo sapiens, UniProt Q07817); experiment: Bcl-xL ELISA degradation in MOLT-4 cells, 6 h; settings: for DC50: read-out: Bcl-xL ELISA in MOLT-4 degradation 6 h: Mean external-Abs DC50
T1 construct: endogenous in cells; host or cells: MOLT-4
T1 sequence (Q07817 whole entry): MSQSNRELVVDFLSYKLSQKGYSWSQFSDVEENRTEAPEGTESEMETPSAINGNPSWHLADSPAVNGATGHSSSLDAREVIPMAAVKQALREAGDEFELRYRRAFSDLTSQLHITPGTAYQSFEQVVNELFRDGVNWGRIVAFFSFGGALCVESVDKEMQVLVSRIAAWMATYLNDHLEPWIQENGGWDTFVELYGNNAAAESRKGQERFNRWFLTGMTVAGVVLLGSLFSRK
Protocol: The letter codes for BCL-XL DC50 include: A (<0.01 μM); B (0.01-0.1 μM); C (>[…]); D (>0.5-1.0 μM); and E (>1.0 μM). The letter codes for Dmax % include A (>75%); B (50 to 75%); C (<50%).

MOLT-4 cells = experiment: CTG (CellTiter-Glo) cell viability assay, MOLT-4; settings: 3 day incubation, read-out: CTG Cell Viability Assay - MOLT-4 3 day: Average external-IC50
Method in brief: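 10,000 cells/well; 9 doses, 1:3 from 10 μM top; 0.2% DMSO; 3 d, 37 °C, 5% CO2; CTG luminescence; IC50 via 3-parameter logistic fit. Letter bins differ: Caki-2 C/D cut at 10.0 μM, MOLT-4 at 3.0 μM.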

Caki-2 cells = experiment: CTG (CellTiter-Glo) cell viability assay, Caki-2; settings: 3 day incubation, read-out: CTG Chempartner - Caki-2 3 day: Average external-IC50
Protocol: Compound-mediated viability effect on MOLT-4 and Caki-2 was quantitatively determined using the CellTiter-Glo® Luminescent Cell Viability Assay kit from Promega (Catalog number G7570) following manufacturer's recommended procedures. Briefly, MOLT-4 and Caki-2 cells were seeded into 384 well plates (Grenier Bio-One, Catalog number 781080) with a density of 10,000 cells per well. Compounds were then added to the assay plate with final top concentration of 10 μM and 1:3 dilution series with total of 9 doses. The final DMSO concentration is normalized to 0.2%. The assay plates were incubated at 37° C., for 3 days under 5% CO2. Then the assay plate was equilibrated at room temperature for 10 minutes. To determine cell viability, 30 uL CellTiter Glo reagent was added to each well and the assay plate was centrifuged at 1000 rpm for 30 second, incubated at room temperature for 10 min, and analyzed by detecting the luminescence using a multimode plate reader (EnVision 2105, PerkinElmer). The data was then analyzed by software Prism 7.0 from GraphPad and the dose response curves are fit using a three-parameter logistic equation to calculate IC50.
The letter codes for MOLT-4 IC50 include: A (<0.1 μM); B (0.1-1.0 μM); C (>1.0-3.0 μM); and D (>3.0 μM). The letter codes for Caki-2 IC50 include: A (<0.1 μM); B (0.1-1.0 μM); C (>1.0-10.0 μM); and D (>10.0 μM).

BCL-XL [2] = target: T1, BCL-XL; experiment: BCL-XL degradation assay, western blot in MOLT-4 cells, 16 h; settings: western blot, MOLT-4 cells, 16 h; for Dmax: read-out: Bcl-xL WB in MOLT-4 degradation 16 h: Average Dmax %; for DC50: read-out: Bcl-xL WB in MOLT-4 degradation 16 h: Mean external-Abs DC50
Method in brief: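 Infrared-imaged western blots quantified BCL-xL (normalised against beta-actin/GAPDH) after 16 hr, 37° C exposure of MOLT-4 cells to 0.02-10 μM compound; results given as DC50 and Dmax % bins.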

SMILES	IC50 (MOLT-4 cells; Homo sapiens, MOLT-4, 72 h) [nM]	IC50 (Caki-2 cells; Homo sapiens, 72 h) [nM]	also measured
Cc1ncsc1-c1ccc(CNC(=O)[C@@H]2C[C@@H](O)CN2C(=O)[C@@H](NC(=O)CCc2cccc(S(=O)(=O)NC(=O)c3nc(N4CCc5cccc(C(=O)Nc6nc7ccccc7s6)c5C4)ccc3-c3cnn(CC4CCCCC4)c3C)c2)C(C)(C)C)cc1 [I-321]	–	–	Bcl-xL ELISA in MOLT-4 degradation 6 h: Average Dmax % (BCL-XL [1]): A (A (>75%)); DC50 (BCL-XL [1]): 10 to 100 nM; IC50 (MOLT-4 cells): < 100 nM; IC50 (Caki-2 cells): 1000 to 10000 nM
C#Cc1ccc(CNC(=O)[C@@H]2C[C@@H](O)CN2C(=O)[C@@H](NC(=O)CCc2ccc(S(=O)(=O)NC(=O)c3nc(N(C)c4cc(C)c(Nc5nc6ccccc6s5)nn4)ccc3-c3cnn(CC(C)C)c3C)cc2)C(C)(C)C)cc1 [I-326]	> 3000	> 10000	Dmax (BCL-XL [1]): < 50%; DC50 (BCL-XL [1]): > 1000 nM
Cc1ncsc1-c1ccc([C@H](C)NC(=O)[C@@H]2C[C@@H](O)CN2C(=O)[C@@H](NC(=O)[C@H]2CC[C@H](N3CCC(S(=O)(=O)NC(=O)c4nc(N5CCc6cccc(C(=O)Nc7nc8ccccc8s7)c6C5)ccc4-c4cnn(CC5CCCCC5)c4C)CC3)CC2)C(C)(C)C)cc1 [I-357]	1000 to 3000	1000 to 10000	Dmax (BCL-XL [1]): > 75%; DC50 (BCL-XL [1]): 100 to 500 nM
C#Cc1ccc(CNC(=O)[C@@H]2C[C@@H](O)CN2C(=O)[C@@H](NC(=O)CCNCCS(=O)(=O)NC(=O)c2nc(N(C)c3cc(C)c(Nc4nc5ccccc5s4)nn3)ccc2-c2cnn(CC34CC5CC(CC(C5)C3)C4)c2C)C(C)(C)C)c(OCCO)c1 [I-431]	100 to 1000	> 10000	–
Cc1csc(NC(=O)c2cccc3c2CN(c2ccc(-c4cnn(CC5CCCCC5)c4C)c(C(=O)NS(=O)(=O)CCCCCC(=O)N[C@H](C(=O)N4C[C@H](O)C[C@H]4C(=O)N[C@@H](C)c4ccc(-c5scnc5C)cc4)C(C)(C)C)n2)CC3)n1 [I-462]	100 to 1000	> 10000	–
Cc1cc(N(C)c2ccc(-c3cnn(CC45CC6CC(CC(C6)C4)C5)c3C)c(C(=O)NS(=O)(=O)CCNCCC(=O)N[C@H](C(=O)N3C[C@H](O)C[C@H]3C(=O)N[C@@H](C)c3ccc(-c4scnc4C)cc3)C(C)(C)C)n2)nnc1Nc1nc2ccccc2s1 [I-427]	100 to 1000	> 10000	–
Cc1ncsc1-c1ccc([C@H](C)NC(=O)[C@@H]2C[C@@H](O)CN2C(=O)[C@@H](NC(=O)CCCCCS(=O)(=O)NC(=O)c2nc(N3CCc4cccc(C(=O)Nc5nc6ccccc6s5)c4C3)ccc2-c2cnn(CC3CCCCC3)c2C)C(C)(C)C)cc1 [I-118]	–	> 10000	Dmax (BCL-XL [2]): > 75%; DC50 (BCL-XL [2]): < 10 nM; Dmax (BCL-XL [1]): > 75%; DC50 (BCL-XL [1]): < 10 nM
C#Cc1ccc(CNC(=O)[C@@H]2C[C@@H](O)CN2C(=O)[C@@H](NC(=O)CCCS(=O)(=O)NC(=O)c2nc(N3CCc4cccc(C(=O)Nc5nc6cccnc6s5)c4C3)ccc2-c2cnn(CC(C)C)c2C)C(C)(C)C)cc1 [I-412]	> 3000	> 10000	–
Cc1cc(N(C)c2ccc(-c3cnn(CC45CC6CC(CC(C6)C4)C5)c3C)c(C(=O)NS(=O)(=O)CCCCCC(=O)N[C@H](C(=O)N3C[C@H](O)C[C@H]3C(=O)N[C@@H](C)c3ccc(-c4scnc4C)cc3)C(C)(C)C)n2)nnc1Nc1nc2cccnc2s1 [I-439]	100 to 1000	> 10000	–
Cc1c(-c2ccc(N3CCc4cccc(C(=O)Nc5nc6cccnc6s5)c4C3)nc2C(=O)NS(=O)(=O)CCCCCC(=O)N[C@H](C(=O)N2C[C@H](O)C[C@H]2C(=O)N[C@@H](C)c2ccc(C#N)cc2O)C(C)(C)C)cnn1CC1CCCCC1 (single isomer, unassigned) [I-485]	> 3000	> 10000	–
Cc1ncsc1-c1ccc([C@H](C)NC(=O)[C@@H]2C[C@@H](O)CN2C(=O)[C@@H](NC(=O)CCCCCS(=O)(=O)NC(=O)c2nc(N3CCc4cccc(C(=O)NCc5cnco5)c4C3)ccc2-c2cnn(CC3CCCCC3)c2C)C(C)(C)C)cc1 [I-461]	100 to 1000	> 10000	–
Cc1cc(N2CC(C(=O)N[C@H](C(=O)N3C[C@H](O)C[C@H]3C(=O)NCc3ccc(-c4scnc4C)cc3)C(C)(C)C)C2)ccc1S(=O)(=O)NC(=O)c1nc(N(C)c2cc(C)c(Nc3nc4ccccc4s3)nn2)ccc1-c1cnn(CC23CC4CC(CC(C4)C2)C3)c1C [I-435]	< 100	> 10000	–
C#Cc1ccc([C@H](C)NC(=O)[C@@H]2C[C@@H](O)CN2C(=O)[C@@H](NC(=O)CCCCCS(=O)(=O)NC(=O)c2nc(N3CCc4cccc(C(=O)Nc5nc6ccccc6s5)c4C3)ccc2-c2cnn(CC(C)(C)C)c2C)C(C)(C)C)cc1 [I-470]	< 100	> 10000	–
Cc1cc(N(C)c2ccc(-c3cnn(CC45CC6CC(CC(C6)C4)C5)c3C)c(C(=O)NS(=O)(=O)CCCN(C)CC(=O)N[C@H](C(=O)N3C[C@H](O)C[C@H]3C(=O)N[C@@H](C)c3ccc(-c4scnc4C)cc3)C(C)(C)C)n2)nnc1Nc1nc2cccnc2s1 [I-448]	100 to 1000	> 10000	–
C#Cc1ccc(CNC(=O)[C@@H]2C[C@@H](O)CN2C(=O)[C@@H](NC(=O)CCCCCS(=O)(=O)NC(=O)c2nc(N(C)c3cc(C)c(Nc4nc5ccccc5s4)nn3)ccc2-c2cnn(CC(C)(C)C)c2C)C(C)(C)C)cc1 [I-472]	100 to 1000	> 10000	–
Cc1ncsc1-c1ccc([C@H](C)NC(=O)[C@@H]2C[C@@H](O)CN2C(=O)[C@@H](NC(=O)CCCCCC(=O)N(C)CC#Cc2cccc(F)c2OCCCc2sc(N3CCc4cccc(C(=O)Nc5nc6ccccc6s5)c4C3)nc2C(=O)O)C(C)(C)C)cc1 [I-16]	–	> 10000	Dmax (BCL-XL [2]): > 75%; DC50 (BCL-XL [2]): 100 to 500 nM
Cc1ccc(NC(=O)c2cccc3c2CN(c2ccc(-c4cnn(CC5CCCCC5)c4C)c(C(=O)NS(=O)(=O)CCCCCC(=O)N[C@H](C(=O)N4C[C@H](O)C[C@H]4C(=O)N[C@@H](C)c4ccc(-c5scnc5C)cc4)C(C)(C)C)n2)CC3)nc1 [I-458]	> 3000	> 10000	–
Cc1cc(N(C)c2ccc(-c3cnn(CC45CC6CC(CC(C6)C4)C5)c3C)c(C(=O)NS(=O)(=O)CCN3CC(C(=O)N[C@H](C(=O)N4C[C@H](O)C[C@H]4C(=O)N[C@@H](C)c4ccc(-c5scnc5C)cc4)C(C)(C)C)C3)n2)nnc1Nc1nc2ccccc2s1 [I-432]	1000 to 3000	> 10000	–
Cc1cc(N(C)c2ccc(-c3cnn(CC4CCCC4)c3C)c(C(=O)NS(=O)(=O)c3ccc(N4CCC(C(=O)N[C@H](C(=O)N5C[C@H](O)C[C@H]5C(=O)N[C@@H](C)c5ccc(-c6scnc6C)cc5)C(C)(C)C)CC4)cc3)n2)nnc1Nc1nc2ccccc2s1 [I-441]	1000 to 3000	> 10000	–
Cc1ncsc1-c1ccc([C@H](C)NC(=O)[C@@H]2C[C@@H](OC(=O)CCP(=O)(O)O)CN2C(=O)[C@@H](NC(=O)CCCS(=O)(=O)NC(=O)c2nc(N3CCc4cccc(C(=O)Nc5nc6ccccc6s5)c4C3)ccc2-c2cnn(CC3CCCCC3)c2C)C(C)(C)C)cc1 [I-411]	–	> 10000	IC50 (MOLT-4 cells; Homo sapiens, 72 h): 100 to 1000 nM
Cc1ncsc1-c1ccc(CNC(=O)[C@@H]2C[C@@H](O)CN2C(=O)[C@@H](NC(=O)C2(F)CC2)C(C)(C)C)c(OCCCCCCN(C)C(=O)c2nc(N3CCc4cccc(C(=O)Nc5nc6ccccc6s5)c4C3)ccc2-c2cnn(CC3CCCCC3)c2C)c1 [I-168]	100 to 1000	> 10000	–
C#Cc1ccc(CNC(=O)[C@@H]2C[C@@H](O)CN2C(=O)[C@@H](NC(=O)CCCCCS(=O)(=O)NC(=O)c2nc(N3CCc4cccc(C(=O)Nc5nc6cccnc6s5)c4C3)ccc2-c2cnn(CC(C)(C)C)c2C)C(C)(C)C)cc1 [I-468]	1000 to 3000	> 10000	–
C#Cc1ccc([C@H](C)NC(=O)[C@@H]2C[C@@H](O)CN2C(=O)[C@@H](NC(=O)CCCCCS(=O)(=O)NC(=O)c2nc(N3CCc4cccc(C(=O)Nc5nc6cccnc6s5)c4C3)ccc2-c2cnn(CC(C)(C)C)c2C)C(C)(C)C)cc1 [I-469]	100 to 1000	> 10000	–
